According to patent publication US20100298141A1, “SUBSTITUTED PYRIDINE N-OXIDE HERBICIDES” (E. I. DU PONT DE NEMOURS AND COMPANY, priority 2007, published 2010):

Experiments:
lambsquarters = assay: Test C pre-/postemergence test; assay type: in vivo, Chenopodium album; conditions: Postemergence; for Plant response rating, Lambsquarters: scale 0 to 100, 0 no effect, 100 complete control
Procedure, shortened: (§1)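 Compounds in a non-phytotoxic solvent with surfactant applied preemergence to seeded pots and, at the same time, postemergence to plants 2–18 cm tall (1- to 4-leaf stage). Paddy tests: pots flooded to 3 cm, compound applied into the water, depth held throughout.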

bermudagrass = assay: Test C pre-/postemergence test; assay type: in vivo, Cynodon dactylon
Procedure, shortened: as §1

downy brome = assay: Test C pre-/postemergence test; assay type: in vivo, Bromus tectorum
Procedure, shortened: as §1

giant foxtail [1] = assay: Test A pre-/postemergence greenhouse test; assay type: in vivo, Setaria faberi; conditions: for Plant response rating, Foxtail, Giant: 0 to 100 scale where 0 is no effect and 100 is complete control; for Foxtail, Giant plant response rating: 0 to 100 scale
Procedure, shortened: (§2)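 Herbicidal effect is a visual injury score given about ten days post-treatment by comparison with untreated controls. Preemergence plots received a directed spray onto sown loam–sand soil; postemergence plants, at the one- to two-leaf stage and 2–10 cm tall, were sprayed at the same time.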

johnsongrass = assay: Test C pre-/postemergence test; assay type: in vivo, Sorghum halepense
Procedure, shortened: as §1

pigweed = assay: Test C pre-/postemergence test; assay type: in vivo, Amaranthus retroflexus
Procedure, shortened: as §1

velvetleaf = assay: Test A pre-/postemergence greenhouse test; assay type: in vivo, Abutilon theophrasti; conditions: for Plant response rating, Velvetleaf: 0 to 100 scale where 0 is no effect and 100 is complete control; for Velvetleaf plant response rating: 0 to 100 scale
Procedure, shortened: as §2

giant foxtail [2] = assay: Test C pre-/postemergence test; assay type: in vivo, Setaria faberii; conditions: for Foxtail, Giant plant response rating: preemergence, scale 0 (no effect) to 100 (complete control)
Procedure, shortened: as §1

wheat = assay: Test A pre-/postemergence greenhouse test; assay type: in vivo, Triticum aestivum; conditions: for Plant response rating, Wheat: 0 to 100 scale where 0 is no effect and 100 is complete control; for Wheat plant response rating: 0 to 100 scale
Procedure, shortened: as §2

morningglory = assay: Test C pre-/postemergence test; assay type: in vivo, Ipomoea coccinea
Procedure, shortened: as §1

rice = assay: Test C flooded paddy test; assay type: in vivo, Oryza sativa; conditions: Flood
Procedure, shortened: (§3)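 Test compounds are applied straight into paddy water held 3 cm above the soil surface, with that flood maintained for the whole test. After 13 to 15 days in the greenhouse, each species is scored visually relative to controls.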

corn = assay: Test A pre-/postemergence greenhouse test; assay type: in vivo, Zea mays; conditions: for Plant response rating, Corn: 0 to 100 scale where 0 is no effect and 100 is complete control; for Corn plant response rating: 0 to 100 scale
Procedure, shortened: as §2

Surinam grass = assay: Test C pre-/postemergence test; assay type: in vivo, Brachiaria decumbens
Procedure, shortened: as §1

barnyardgrass = assay: Test C flooded paddy test; assay type: in vivo, Echinochloa crus-galli; conditions: Flood
Procedure, shortened: as §3

crabgrass = assay: Test C pre-/postemergence test; assay type: in vivo, Digitaria sanguinalis
Procedure, shortened: as §1

soybean = assay: Test C pre-/postemergence test; assay type: in vivo, Glycine max
Procedure, shortened: as §1

[3] = 125 g ai/ha, preemergence, scale 0 (no effect) to 100 (complete control)
[4] = Postemergence, 62 g ai/ha, scale 0 to 100, 0 no effect, 100 complete control
[5] = Postemergence, 125 g ai/ha, scale 0 to 100, 0 no effect, 100 complete control
[6] = Postemergence, 250 g ai/ha, scale 0 to 100, 0 no effect, 100 complete control
[7] = Preemergence, 31 g ai/ha, scale 0 to 100 (0 no effect, 100 complete control)
[8] = preemergence, 250 g ai/ha, scale 0 (no effect) to 100 (complete control)
[9] = 62 g ai/ha, Preemergence, scale 0 to 100
[10] = Postemergence, 500 g ai/ha, 0 is no effect, 100 is complete control
[11] = Preemergence, 125 g ai/ha, 0 no effect, 100 complete control
[12] = 62 g ai/ha, scale 0 to 100 (0 no effect, 100 complete control)
[13] = 250 g ai/ha, scale 0 to 100, 0 no effect, 100 complete control, 13 to 15 days

CCn1nc(C(F)(F)F)c(C[S+]([O-])c2cccc[n+]2[O-])c1OCC(F)(F)F (racemic) [Compound 65]
55: Plant response rating, Barnyardgrass (barnyardgrass; [12])
40: Plant response rating, Foxtail, Giant (giant foxtail [2]; [5]) | Corn plant response rating (corn; [11])
0: Plant response rating (0 to 100), Lambsquarters (lambsquarters; 31 g ai/ha) | Plant response rating, Lambsquarters (lambsquarters; 62 g ai/ha) | Plant response rating (0 to 100), Bermudagrass (bermudagrass; Postemergence, 31 g ai/ha) | Plant response rating, Bermudagrass (bermudagrass; [4]) | Plant response rating (0 to 100), Bromegrass, Downy (downy brome; Postemergence, 31 g ai/ha) | Plant response rating (0 to 100), Johnsongrass (johnsongrass; Postemergence, 31 g ai/ha) | Plant response rating, Johnsongrass (johnsongrass; [4]) | Plant response rating, Johnsongrass (johnsongrass; [5]) | Plant response rating, Johnsongrass (johnsongrass; [6]) | Plant response rating (0 to 100), Pigweed (pigweed; Postemergence, 31 g ai/ha) | Plant response rating (0 to 100), Pigweed (pigweed; Postemergence, 62 g ai/ha) | Plant response rating, Pigweed (pigweed; [5]) | Plant response rating (0 to 100), Foxtail, Giant (giant foxtail [2]; Postemergence, 31 g ai/ha) | Plant response rating, Foxtail, Giant (giant foxtail [2]; [4]) | Morningglory plant response rating (morningglory; [9]) | Plant response rating (0 to 100), Morningglory (morningglory; Postemergence, 31 g ai/ha) | Plant response rating, Morningglory (morningglory; [4]) | Plant response rating, Morningglory (morningglory; [5]) | Plant response rating, Morningglory (morningglory; [6]) | Plant response rating, Morningglory (morningglory; [7]) | Plant response rating, Rice (rice; [12]) | Plant response rating (0 to 100), Surinam Grass (Surinam grass; Postemergence, 31 g ai/ha) | Plant response rating (0 to 100), Surinam Grass (Surinam grass; Postemergence, 62 g ai/ha) | Plant response rating, Surinam Grass (Surinam grass; [5]) | Plant response rating (0 to 100), Crabgrass, Large (crabgrass; Postemergence, 31 g ai/ha) | Plant response rating, Crabgrass, Large (crabgrass; [4]) | Plant response rating, Crabgrass, Large (crabgrass; [5])
45: Plant response rating, Rice (rice; [13])
100: Bermudagrass plant response rating (bermudagrass; 62 g ai/ha, Preemergence, scale 0 to 100 (0 no effect, 100 complete control)) | Bermudagrass plant response rating (bermudagrass; [3]) | Plant response rating, Bermudagrass (bermudagrass; [7]) | Bermudagrass plant response rating (bermudagrass; [8]) | Bromegrass, Downy plant response rating (downy brome; [9]) | Bromegrass, Downy plant response rating (downy brome; [3]) | Bromegrass, Downy plant response rating (downy brome; [8]) | Foxtail, Giant plant response rating (giant foxtail [1]; [10]) | Foxtail, Giant plant response rating (giant foxtail [1]; [11]) | Plant response rating, Foxtail, Giant (giant foxtail [1]; Preemergence, 500 g ai/ha) | Johnsongrass plant response rating (johnsongrass; [9]) | Johnsongrass plant response rating (johnsongrass; [3]) | Johnsongrass plant response rating (johnsongrass; [8]) | Pigweed plant response rating (pigweed; [8]) | Velvetleaf plant response rating (velvetleaf; [11]) | Plant response rating, Velvetleaf (velvetleaf; Preemergence, 500 g ai/ha) | Foxtail, Giant plant response rating (giant foxtail [2]; 125 g ai/ha) | Foxtail, Giant plant response rating (giant foxtail [2]; 250 g ai/ha) | Plant response rating, Wheat (wheat; Preemergence, 500 g ai/ha) | Surinam Grass plant response rating (Surinam grass; [9]) | Surinam Grass plant response rating (Surinam grass; [3]) | Surinam Grass plant response rating (Surinam grass; [8]) | Crabgrass, Large plant response rating (crabgrass; [9]) | Crabgrass, Large plant response rating (crabgrass; [3]) | Crabgrass, Large plant response rating (crabgrass; [8])
70: Plant response rating, Bermudagrass (bermudagrass; [5]) | Wheat plant response rating (wheat; [10]) | Plant response rating, Corn (corn; Postemergence, 125 g ai/ha)
50: Plant response rating, Lambsquarters (lambsquarters; 125 g ai/ha) | Plant response rating, Lambsquarters (lambsquarters; 250 g ai/ha) | Plant response rating (0 to 100), Soybean (soybean; Postemergence, 62 g ai/ha)
98: Plant response rating, Johnsongrass (johnsongrass; [7]) | Plant response rating, Foxtail, Giant (giant foxtail [2]; [7])
90: Plant response rating, Bermudagrass (bermudagrass; [6]) | Plant response rating, Foxtail, Giant (giant foxtail [1]; Postemergence, 125 g ai/ha) | Velvetleaf plant response rating (velvetleaf; [10]) | Plant response rating, Soybean (soybean; [6])
85: Pigweed plant response rating (pigweed; [9]) | Plant response rating, Pigweed (pigweed; [7]) | Plant response rating, Barnyardgrass (barnyardgrass; [13])
10: Plant response rating, Bromegrass, Downy (downy brome; [4])
65: Plant response rating, Bromegrass, Downy (downy brome; [7])
30: Plant response rating, Bromegrass, Downy (downy brome; [5])
60: Plant response rating, Wheat (wheat; Postemergence, 125 g ai/ha) | Plant response rating, Crabgrass, Large (crabgrass; [6]) | Plant response rating, Crabgrass, Large (crabgrass; [7]) | Plant response rating, Soybean (soybean; [5])
25: Plant response rating, Surinam Grass (Surinam grass; [6])
80: Plant response rating, Velvetleaf (velvetleaf; Postemergence, 125 g ai/ha) | Plant response rating, Foxtail, Giant (giant foxtail [2]; [6]) | Wheat plant response rating (wheat; [11]) | Corn plant response rating (corn; [10]) | Plant response rating, Corn (corn; Preemergence, 500 g ai/ha) | Plant response rating, Surinam Grass (Surinam grass; [7])
20: Plant response rating (0 to 100), Soybean (soybean; Postemergence, 31 g ai/ha)
75: Plant response rating, Bromegrass, Downy (downy brome; [6]) | Morningglory plant response rating (morningglory; [8])
5: Plant response rating, Pigweed (pigweed; [6]) | Plant response rating, Soybean (soybean; [7])
